In patent publication US20110190265A1, “METHODS AND COMPOSITIONS FOR TREATING BACTERIAL INFECTIONS BY INHIBITING QUORUM SENSING” (priority 2008, published 2011):

Tests used:
[1] = system: autoinducer production by V. cholerae N16961; assay: microbe, parasite or virus in culture; conditions: Vibrio cholerae, read-out: AI Inhibition IC50, BB170 (ai1−ai2+)
[2] = biological target: MTAN activity in V. cholerae N16961 cells (Vibrio cholerae serotype O1, UniProt Q9KPI8)
human MTAP = human MTAP (Homo sapiens, UniProt Q13126); conditions: read-out: affinity for purified human MTAP; cited from earlier work
VcMTAN = biological target: T1, VcMTAN (Vibrio cholerae serotype O1, UniProt Q9KPI8); assay: Inhibition of purified MTAN activity (xanthine oxidase-coupled assay); format: biochemical; conditions: ratio of dissociation constants of the inhibitor pair
T1 construct: residues 1-230 for each monomer of VcMTAN in the asymmetric unit; The largest part of the N-terminal 6-His tag and the last C-terminal residue, 231; made in house; host or cells: E. coli BL21 Star (pBAD-DEST49)
T1 sequence (Q9KPI8 1-231): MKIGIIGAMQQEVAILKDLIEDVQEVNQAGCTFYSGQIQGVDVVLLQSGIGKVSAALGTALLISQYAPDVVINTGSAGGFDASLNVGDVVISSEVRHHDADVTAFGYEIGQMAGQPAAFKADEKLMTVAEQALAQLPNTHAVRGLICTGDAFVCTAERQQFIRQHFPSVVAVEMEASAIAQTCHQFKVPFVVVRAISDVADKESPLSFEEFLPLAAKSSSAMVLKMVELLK
Experimental: Inhibition of purified MTAN activity. […] Reactions were monitored for 2 hours at 25° C. on a Cary 300 Bio UV-Vis spectrophotometer. Inhibition constants were obtained by fitting the data to the following expression for competitive inhibition using KaleidaGraph 3.6 (Synergy Software, Reading, Pa.):
where νs′ and νs are steady state rates in the presence, and absence of inhibitor, respectively; Km is the Michaelis constant for substrate MTA which was obtained as described above; [S] and [I] are the concentrations of MTA and inhibitor, respectively. If the concentration of inhibitor is smaller than 10-fold concentration of enzymes, the following correction was then applied:

EcMTAN = EcMTAN (Escherichia coli, UniProt P0AF12); conditions: purified EcMTAN; cited from earlier work
EcMTAN, sequence (P0AF12 whole entry): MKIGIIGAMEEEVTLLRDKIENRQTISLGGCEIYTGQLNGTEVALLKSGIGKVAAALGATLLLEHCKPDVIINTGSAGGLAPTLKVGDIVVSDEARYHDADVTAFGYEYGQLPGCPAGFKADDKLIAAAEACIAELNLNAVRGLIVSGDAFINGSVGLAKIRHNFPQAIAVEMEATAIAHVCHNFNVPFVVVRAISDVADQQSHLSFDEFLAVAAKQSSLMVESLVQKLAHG

human MTAP, sequence (Q13126 whole entry): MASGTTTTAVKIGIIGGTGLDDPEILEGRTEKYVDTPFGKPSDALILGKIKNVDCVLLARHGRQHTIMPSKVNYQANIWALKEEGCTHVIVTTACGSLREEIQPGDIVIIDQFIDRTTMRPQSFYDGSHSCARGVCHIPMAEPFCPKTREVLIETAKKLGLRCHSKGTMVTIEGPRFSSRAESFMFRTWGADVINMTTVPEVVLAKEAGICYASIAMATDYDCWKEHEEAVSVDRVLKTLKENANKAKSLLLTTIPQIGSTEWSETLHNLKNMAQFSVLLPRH

Structure (SMILES): CCSCC1CN(Cc2c[nH]c3c(N)ncnc23)CC1O (stereo not shown) [EtT-DADMe-ImmA, 5′-ethylthio-(EtT-) DADMe-ImmucillinA]
- IC50 [1]: 11 nM

Structure (SMILES): CCCCSCC1CN(Cc2c[nH]c3c(N)ncnc23)CC1O (stereo not shown) [BuT-DADMe-ImmA, 5′-butylthio-(BuT-)DADMe-ImmucillinA]
- IC50 [1]: 1.4 nM

Structure (SMILES): CSCC1CN(Cc2c[nH]c3c(N)ncnc23)CC1O (stereo not shown) [MT-DADMe-ImmA, 5′-methylthio-(MT-) DADMe-ImmucillinA]
- increase of cellular IC50 above Ki* (diffusion barrier) [2]: ~500 fold
- Kd (human MTAP): 0.086 nM
- IC50 [1]: 0.94 nM

Structure (SMILES): CSC[C@H]1N[C@@H](c2c[nH]c3c(N)ncnc23)[C@H](O)[C@@H]1O [MT-ImmA, 5′-methylthio-ImmucillinA]
- KImmA/KDADMe-ImmA (VcMTAN): 135

Structure (SMILES): Nc1ncnc2c(CN3CC(O)C(CSc4ccc(Cl)cc4)C3)c[nH]c12 (stereo not shown) [para-chloro-phenylthio-DADMe-ImmA]
- Km/Ki (EcMTAN): ~10^8
